Consider 1 molecule from EP2181589A1, “Neurotoxic sterol glycosides” (Shaw, Christopher Ariel, priority 2008, dated 2010).

The structures appear in SMILES notation. “Also recorded” adds a separate entry of the source. Marks after values point to notes of the source that are not given here.

Series [1] has as its system CD-1 mice. As to the kind of experiment: Leg extension reflex test. The class given is in vivo. The protocol:
(§1) Five-month old male CD-1 mice (30.1-35.7 g, 7.5 cm - 8.8 cm) were purchased from Charles River (Wilmington, MA). Adult mice were chosen to mimic the mean age of onset of ALS-PDC (Kurland, 1988; Kurland et al., 1994). Thirty mice for the SG study were randomly divided into 2 groups (14 control and 16 experimental animals). All animals were housed singly in a virus-free barrier facility in a room maintained at 22°C under a 12 hour light/dark cycle. The mice were provided ad libitum access to food and water.
The synthetic SG was mixed with finely ground Purina Chow mouse pellets (Mouse Diet™, Purina) to create the experimental pellets with a SG content of 1000 µg per pellet. Dry materials were blended with a sterile silicon spatula. For every 5 g of standard feed, 2.5 mL of doubly-distilled water (dd)H2O was added and the dough was kneaded and round up into pellets. A single sterol glucoside containing pellet was placed in the feeding tray each morning before the addition of regular mouse chow (ad libitum). […] SG feeding was conducted daily for 15 weeks and mice were behaviorally monitored until sacrifice at 35 weeks (time point 1) or 52 weeks (time point 2).
Leg extension reflex test: The leg extension reflex test was used as a measure of motor neuron dysfunction (Barneoud and Curet, 1999). […] The leg extension reflex was measured three times per week in each animal. […]

Series [2] relates to CD-1 mice. As to the kind of experiment: Gait analysis (Digigait). The class given is in vivo. The note with it: SG-fed vs control. The protocol: as §1
(§2) The synthetic SG was mixed with finely ground Purina Chow mouse pellets (Mouse Diet™, Purina) to create the experimental pellets with a SG content of 1000 µg per pellet. Dry materials were blended with a sterile silicon spatula. For every 5 g of standard feed, 2.5 mL of doubly-distilled water (dd)H2O was added and the dough was kneaded and round up into pellets. A single sterol glucoside containing pellet was placed in the feeding tray each morning before the addition of regular mouse chow (ad libitum). All experimental pellets were entirely consumed by the mice each day. Control mice were fed standard mouse chow pellets of identical weight with no additives. SG feeding was conducted daily for 15 weeks and mice were behaviorally monitored until sacrifice at 35 weeks (time point 1) or 52 weeks (time point 2).
Gait analysis: In order to examine spatial and temporal indices of front and hind limb stepping patterns during forward locomotion, mice were required to run on a colorless (PVC and polycarbonate), straight, level, walled motorized belt (Digigait™, treadmill motor: DC, HP; torque 45 1b-in, Mouse Specifics, Inc., Boston, MA, USA) set at 30 rpm with a no-flicker light source (90-250 VAC; 25 kHZ, Mouse Specifics, Inc., Boston, MA, USA) and camera mounted ventrally (relative to the animal) to facilitate continuous ventral plane videography (up to 150 frames per second) of activity. Gait indices were analyzed with the complementary digital imaging software (Digigait™, Mouse Specifics, Inc., Boston, MA, USA) as per manufacturer's instructions. Briefly, the software converts "paw prints" into a digital signal and generates a temporal record of paw placement and breaks down the digital file into three main parameters: stride duration, swing duration, and stance duration. The stance duration is the period during which the paw of a limb is in contact with the belt surface. The software further subdivides the stance duration into two components: braking duration (the increase in paw contact area over a discrete time interval) and propulsion duration (the decrease in paw contact area over a discrete time interval). The swing duration is the period of time that a paw is not in contact with the belt surface. In addition to these factors, over a dozen additional characteristics, including stance factor, step-sequence pattern, propulsion, and cadence are generated to provide a spreadsheet format report of twenty-five gait indices.

The test system of a further series is Phosphorylated Junser73. In words: Phosphorylated Jun ser73 immunofluorescence. The class given is in vivo, CD-1 mice. The note with it: for Anti-pJun: SG-fed vs control. The protocol: as §2
Tissue-mounted slides were processed for fluorescence microscopy as follows: Sections were rinsed in coplin jars for 45 minutes at room temperature (RT) in three changes of PBS. Sections were then incubated at RT for 30 minutes in a blocking permeabilization solution made of 5% normal goat serum (NGS), 5% normal rabbit serum (NRS) or 5% BlokHen II (Aves Labs, Inc., Tigard, OR), 0.05% Triton X-100 and PBS. Subsequently, the blocking solution was tipped off and the slides were rinsed in PBS for 2 minutes. […]

`CCC(C=CC(C)C1CCC2C3CC=C4CC(OC5OC(CO)C(O)C(O)C5O)CCC4(C)C3CCC12C)C(C)C` (stereo not shown) [SG]: the “Leg extension reflex test performance (score)” value with CD-1 mice [1] (SG-fed animals, soon after 35 weeks / during the study) is reported as “steady decline in performance; also recorded: decreased”. Also, in the series with CD-1 mice [1] (SG-fed vs control, time-point 2, 52 wk), the Leg extension result was “Leg extension* (*p<0.05)”. Moreover, in the series on CD-1 mice [2] (time-point 1, 35 wk), the Forelimb braking result is given as “Forelimb braking (ns)”, the Forelimb propulsion entry is “Forelimb propulsion (ns)”, the Forelimb stance width result is “Forelimb stance width (ns)” and the Forelimb stride length entry is “Forelimb stride length (ns)”. For the same molecule, in the series with CD-1 mice [2] (time-point 1, 35 wk), the Hind limb braking entry is on record as “Hind limb braking (ns)”, the Hind limb propulsion entry was “Hind limb propulsion (ns)”, the “Hind limb stance width” value is recorded as “Hind limb stance width (ns)” and the “Hind limb stride frequency” value is “Hind limb stride frequency (ns)”. Also, the “Hind limb stride length” value with CD-1 mice [2] (time-point 1, 35 wk) is given as “Hind limb stride length (ns)”. In the series with CD-1 mice [2] (time-point 2, 52 wk), the Forelimb braking result was “Forelimb braking* (*p<0.05)”, the Forelimb propulsion entry was “Forelimb propulsion* (*p<0.05)”, the Hind limb braking entry was “Hind limb braking* (*p<0.05)” and the Hind limb propulsion entry is on record as “Hind limb propulsion* (*p<0.05)”. In the series with CD-1 mice [2] (time-point 2, 52 wk), the “Hind limb stride frequency” value is on record as “Hind limb stride frequency* (*p<0.05)”. The Anti-pJun immunoreactive cells result in the series on Phosphorylated Junser73 (SG-fed group over time, 35 to 52 wk) is “Anti-pJun immunoreactive cells (SG-fed group over time) (ns)”. In addition, the Anti-pJun result in the series on Phosphorylated Junser73 (time-point 1, 35 wk) is recorded as “Anti-pJun: +199%*”. The Anti-pJun entry with Phosphorylated Junser73 (time-point 2, 52 wk) is listed as “Anti-pJun (ns)”.
